Measurements from patent US20020155192A1, “Yeast transport isoforms” (priority 2000, published 2002).
Where two headings read alike, the source gives them in different places.

Key:
Assay type in all cases: biochemical
Odc2p [1] = target: T1, Odc2p (Saccharomyces cerevisiae, UniProt Q99297); experiment: Kinetic constants (Km, Vmax, Ki) of recombinant purified Odc2p in proteoliposomes
T1 construct: made in house; host or cells: S. cerevisiae odc1Δodc2Δ (YPH499 background) carrying pYES2-based pODC2; purified from mitochondria on Ni-NTA agarose
T1 sequence (Q99297 1-307): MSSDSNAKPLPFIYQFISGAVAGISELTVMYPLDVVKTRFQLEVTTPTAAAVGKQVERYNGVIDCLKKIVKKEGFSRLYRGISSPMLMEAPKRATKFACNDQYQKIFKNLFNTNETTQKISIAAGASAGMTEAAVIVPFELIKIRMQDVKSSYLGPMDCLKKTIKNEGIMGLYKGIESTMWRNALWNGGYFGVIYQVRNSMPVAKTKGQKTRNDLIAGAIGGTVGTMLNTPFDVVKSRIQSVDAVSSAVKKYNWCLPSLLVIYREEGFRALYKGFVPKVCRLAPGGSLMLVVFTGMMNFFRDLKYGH
Protocol: (§1) External substrate was removed from proteoliposomes on a Sephadex G-75 column preequilibrated with buffer F (50 mM NaCl and 10 mM PIPES, pH 7.0). Transport at 25° C. was started by adding [^14C]oxoglutarate (unless otherwise indicated) to the proteoliposomes, and terminated by addition of 30 mM pyridoxal 5′-phosphate and 10 mM bathophenanthroline (the “inhibitor-stop” method (13)). In controls, inhibitors were added with the labelled substrate. The external radioactivity was removed on Sephadex G-75 and the internal radioactivity was measured. […] The initial rate of transport was calculated in mmol/min per g protein from the time course of isotope equilibration (13). Various other transport activities were also assayed by the inhibitor-stop method. For efflux measurements, the internal substrate pool of the proteoliposomes was made radioactive by carrier-mediated exchange equilibration (13) with 0.1 mM [^14C]oxoglutarate added at high specific radioactivity. After 60 min, the residual external radioactivity was removed by passing the proteoliposomes again through a column of Sephadex G-75. Efflux was started by adding unlabelled external substrate or buffer F alone and terminated by adding the inhibitors indicated above.
(§2) The kinetic constants of the recombinant purified Odc1p and Odc2p were determined by measuring the initial transport rate at various external [^14C]oxoglutarate concentrations, in the presence of a constant saturating internal concentration of 20 mM oxoglutarate.
(§3) The values were calculated from Lineweaver-Burk plots of the rate of [^14C]oxoglutarate versus substrate concentrations. The competing substrates at appropriate constant concentrations were added together with 0.1-2.0 mM [^14C]oxoglutarate to proteoliposomes containing 20 mM oxoglutarate and reconstituted with recombinant Odc1p or Odc2p. The data represent the means ±S.D. of at least three different experiments. n.d., not determined.

Odc1p [2] = target: T2, Odc1p (Saccharomyces cerevisiae, UniProt Q03028); experiment: Kinetic constants (Km, Vmax, Ki) of recombinant purified Odc1p in proteoliposomes
T2 construct: made in house; host or cells: S. cerevisiae odc1Δodc2Δ (YPH499 background) carrying pYES2-based pODC1; purified from mitochondria on Ni-NTA agarose
T2 sequence (Q03028 1-310): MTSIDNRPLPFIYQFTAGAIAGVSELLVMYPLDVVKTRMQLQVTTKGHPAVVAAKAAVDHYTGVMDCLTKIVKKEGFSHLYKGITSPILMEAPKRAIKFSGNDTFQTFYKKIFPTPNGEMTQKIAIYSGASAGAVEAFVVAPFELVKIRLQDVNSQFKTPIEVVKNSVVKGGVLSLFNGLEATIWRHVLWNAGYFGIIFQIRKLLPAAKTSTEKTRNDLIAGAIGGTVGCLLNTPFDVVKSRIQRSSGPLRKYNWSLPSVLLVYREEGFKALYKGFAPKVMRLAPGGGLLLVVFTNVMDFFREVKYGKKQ
Protocol: as §1, §2, §3

Odc1p [3] = target: T2, Odc1p; experiment: Effect of inhibitors and external compounds on the [14C]oxoglutarate/oxoglutarate exchange by proteoliposomes reconstituted with Odc1p; details: Odc1p; for effect of non-radioactive potential substrates on the rate of oxoglutarate uptake (in words): added with 0.4 mM [14C]oxoglutarate, 4.0 mM in FIG. 5, partly data not shown
Protocol: FIG. 5. Effect of dicarboxylates and 2-oxodicarboxylates with different carbon chain length on the rate of [^14C]oxoglutarate uptake into proteoliposomes reconstituted with recombinant Odc1p. Proteoliposomes were preloaded with 20 mM oxoglutarate and reconstituted with recombinant Odc1p. Transport was initiated by the addition of 0.4 mM [^14C]oxoglutarate and terminated after 45 seconds. Oxalate, malonate, succinate, glutarate, adipate, pimelate, suberate (▪) and the corresponding 2-oxoacids (●) were added simultaneously with [1^4C]oxoglutarate at 4.0 mM concentration.
(§4) Reconstitution of the ODC proteins into liposomes—Purified ODC proteins were reconstituted by cyclic removal of the detergent with a hydrophobic column (13). The composition of the initial mixture used for reconstitution was: 200 μl of purified isoform (0.3-0.4 μg of protein), 70 μl of 10% Triton X-114, 100 μl of 10% phospholipids in the form of sonicated liposomes, 20 mM oxoglutarate (except where otherwise indicated), 10 mM Pipes (pH 7.0), 0.7 mg of cardiolipin (Sigma) and water to a final volume of 700 μl. These components were mixed thoroughly, and the mixture was recycled 13 times through an Amberlite column (Supelco) (3.0 cm×0.5 cm) preequilibrated with a buffer containing 10 mM Pipes (pH 7.0) and with the substrate at the same concentration as in the starting mixture. All operations were performed at 4° C., except the passages through Amberlite, which were carried out at room temperature.
as §1
(§5) In addition, the ability of non-radioactive potential substrates to inhibit the oxoglutarate/oxoglutarate exchange was examined.
Proteoliposomes were preloaded internally with 20 mM oxoglutarate and transport was initiated by the addition of 0.4 mM [^14C]oxoglutarate.

Odc1p [4] = target: T2, Odc1p; experiment: Dependence on internal substrate of [14C]oxoglutarate uptake into proteoliposomes reconstituted with recombinant Odc1p; details: Odc1p; for [14C]oxoglutarate uptake with the internal substrate (in words): proteoliposomes preloaded with various substrates; for [14C]oxoglutarate transport: proteoliposomes preloaded with 20 mM internal substrate, 0.6 mM [14C]oxoglutarate, 45 seconds
Protocol: as §4, §1
(§6) The substrate specificity of purified Odc1p and Odc2p was investigated further by measuring the uptake of [^14C]oxoglutarate into proteoliposomes which had been preloaded with various substrates.
(§7) Proteoliposomes were preloaded internally with various substrates (concentration, 20 mM). Transport was started by adding [^14C]oxoglutarate (final concentration, 0.6 mM) and terminated after 45 seconds.

Odc1p [5] = target: T2, Odc1p; experiment: Homoexchange of other substrates in proteoliposomes reconstituted with Odc1p; details: internal concentration 10 mM, external concentration 1 mM
Protocol: as §1
(§8) In order to obtain further information about the mechanism of transport catalyzed by Odc1p and Odc2p, the efflux of [^14C]oxoglutarate from pre-labelled active proteoliposomes was investigated as it provides a more convenient assay for unidirectional transport (13).

Odc2p [6] = target: T1, Odc2p; experiment: Homoexchange of other substrates in proteoliposomes reconstituted with Odc2p; details: internal concentration 10 mM, external concentration 1 mM
Protocol: as §1, §8

Odc2p [7] = target: T1, Odc2p; experiment: Dependence on internal substrate of [14C]oxoglutarate uptake into proteoliposomes reconstituted with recombinant Odc2p; details: Odc2p; for [14C]oxoglutarate uptake with the internal substrate (in words): proteoliposomes preloaded with various substrates; for [14C]oxoglutarate transport: proteoliposomes preloaded with 20 mM internal substrate, 0.6 mM [14C]oxoglutarate, 45 seconds
Protocol: as §4, §1, §6, §7

Odc2p [8] = target: T1, Odc2p; experiment: Effect of inhibitors and external compounds on the [14C]oxoglutarate/oxoglutarate exchange by proteoliposomes reconstituted with Odc2p; details: Odc2p, data not shown
Protocol: as §4, §1, §5
Proteoliposomes were preloaded internally with 20 mM oxoglutarate and transport was initiated by the addition of 0.4 mM [^14C]oxoglutarate. The incubation time was 45 seconds. Thiol reagents and α-cyanocinnamate were added 2 min before the labelled substrate; the other inhibitors and external substrates were added together with [^14C]oxoglutarate. The final concentration of the inhibitors was 4 mM, except for mercurials (10 μM), carboxyatractyloside (0.1 mM), N-ethylmaleimide and α-cyanocinnamate (2 mM).

[9] = Odc2p, Lineweaver-Burk plots, 0.1-2.0 mM [14C]oxoglutarate, 20 mM internal oxoglutarate, means ±S.D., read-out: Ki (competition with [14C]oxoglutarate uptake)
[10] = Odc1p, Lineweaver-Burk plots, 0.1-2.0 mM [14C]oxoglutarate, 20 mM internal oxoglutarate, means ±S.D., read-out: Ki (competition with [14C]oxoglutarate uptake)
[11] = read-out: transport affinity (Km) for the oxoglutarate/oxoglutarate exchange

Structure (SMILES)	Ki (Odc2p [1]; [9]) [mM]	Ki (Odc1p [2]; [10]) [mM]	[14C]oxoglutarate uptake with the internal substrate (in words) (Odc1p [4])	homoexchange catalyzed by the proteoliposomes (in words) (Odc1p [5])	homoexchange catalyzed by the proteoliposomes (in words) (Odc2p [6])	[14C]oxoglutarate uptake with the internal substrate (in words) (Odc2p [7])	[14C]oxoglutarate transport (Odc1p [4]) [mmol/min per g protein]	[14C]oxoglutarate transport (Odc2p [7]) [mmol/min per g protein]	further results
O=C(O)CC(=O)C(=O)O [Oxaloacetate]	> 15	> 15							
CC(C)CC(=O)C(=O)O [2-oxoisocaproate]			no exchange	did not catalyze homoexchanges	did not catalyze homoexchanges	no exchange			effect of oxomonocarboxylates on the rate of uptake of 0.4 mM oxoglutarate (in words) (Odc1p [3]; 8 mM, 20 times greater than the substrate, data not shown): did not influence; effect of oxomonocarboxylates on the rate of uptake of 0.4 mM oxoglutarate (in words) (Odc2p [8]; 8 mM, 20 times greater than the substrate): did not influence
N[C@@H](CCC(=O)O)C(=O)O [glutamate]			no exchange	did not catalyze homoexchanges	did not catalyze homoexchanges	no exchange			
O=C(O)C[C@H](O)C(=O)O [L-malate]	1.37 ± 0.16	1.32 ± 0.13	taken up efficiently			taken up efficiently	56.4	11.4	
O=C(O)CCC(=O)C(=O)O [2-Oxoglutarate]			taken up efficiently				112.5		specific activity (Vmax) for the oxoglutarate/oxoglutarate exchange (Odc2p [1]; Odc2p, 25° C., 20 mM internal oxoglutarate, 16 experiments): 73±17 mmol/min per g protein; Km (Odc2p [1]; [11]): 470 ± 70 µM; specific activity (Vmax) for the oxoglutarate/oxoglutarate exchange (Odc1p [2]; Odc1p, 25° C., 20 mM internal oxoglutarate, 24 experiments): 252±53 mmol/min per g protein; Km (Odc1p [2]; [11]): 520 ± 80 µM
O=C(O)CC(O)(CC(=O)O)C(=O)O [Citrate]			much lower activity			much lower activity	28.6	8.0	Ki (Odc2p [1]): 5.9 ± 0.6 mM; Ki (Odc1p [2]): 6 ± 0.8 mM
O=C(O)CCC(=O)O [Succinate]		> 15	much lower activity			much lower activity	19.1	4.3	effect of non-radioactive potential substrates on the rate of oxoglutarate uptake (in words) (Odc1p [3]): virtually no effect; effect of non-radioactive potential substrates on the rate of oxoglutarate uptake (in words) (Odc2p [8]): virtually no effect
Nc1ncnc2c1ncn2[C@@H]1O[C@H](COP(=O)(O)OP(=O)(O)O)[C@@H](O)[C@H]1O [ADP]			no exchange	did not catalyze homoexchanges	did not catalyze homoexchanges	no exchange			
NC(=O)CC[C@H](N)C(=O)O [glutamine]			no exchange	did not catalyze homoexchanges	did not catalyze homoexchanges	no exchange			effect of non-radioactive potential substrates on the rate of oxoglutarate uptake (in words) (Odc1p [3]): no effect; effect of non-radioactive potential substrates on the rate of oxoglutarate uptake (in words) (Odc2p [8]): no effect
O=C(O)CCCC(=O)C(=O)O [2-Oxoadipate]	0.31 ± 0.04	0.26 ± 0.03	taken up efficiently			taken up efficiently	85.0	22.1	
O=C(O)CCCCC(=O)C(=O)O [2-Oxopimelate]	1.64 ± 0.18	1.83 ± 0.2	taken up efficiently			taken up efficiently	71.6	14.8	
